ChEMBL document CHEMBL1201862, “PubChem BioAssay data set” (2004)
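Step 1: Grow cells in 96-well plates. Step 2: Expose to compound for 48 hours at 5 concentrations. Step 3: Interpolate endpoints linearly; if unreached, use highest concentration. The concentration for 50% growth inhibition is given as GI50.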 The source made the active and inactive calls. No stated cut-off is given here; in the data, active = GI50 up to about 1.1 µM and inactive = higher.

Assays:
Assay in all cases: inhibition of tumour cell growth, NCI panel, 48 h
[1] = test system: A498
[2] = test system: A549
[3] = test system: ACHN
[4] = test system: BT-549
[5] = test system: DU-145
[6] = test system: HCC 2998
[7] = test system: HL-60
[8] = test system: HT-29
[9] = test system: LOX IMVI
[10] = test system: MOLT-4
[11] = test system: Malme-3M
[12] = test system: NCI-H460
[13] = test system: OVCAR-5
[14] = test system: RXF 393
[15] = test system: SF-539
[16] = test system: SN12C
[17] = test system: SNB-75
[18] = test system: SR
[19] = test system: T47D
[20] = test system: UACC-257

SMILES | GI50 [1] | GI50 [2] | GI50 [3] | GI50 [4] | GI50 [5] | GI50 [6] | GI50 [7] | GI50 [8] | GI50 [9] | GI50 [10] | GI50 [11] | GI50 [12] | GI50 [13] | GI50 [14] | GI50 [15] | GI50 [16] | GI50 [17] | GI50 [18] | GI50 [19] | GI50 [20]
CCCCCCCCC/C=C1/CC(CO)(COC(=O)CC(C(C)C)C(C)C)OC1=O (stereo unspecified) | 3.14 µM (inactive) | 1.58 µM (inactive) | 3.17 µM (inactive) | 14.3 µM (inactive) | 12.4 µM (inactive) | 2.39 µM (inactive) | 0.271 µM (active) | 16.3 µM (inactive) | 11.5 µM (inactive) | 1.16 µM (inactive) | 0.515 µM (active) | 3.1 µM (inactive) | 12.1 µM (inactive) | 13.9 µM (inactive) | 10.2 µM (inactive) | 2.42 µM (inactive) | 4.51 µM (inactive) | 17.8 µM (inactive) | 4.91 µM (inactive) | 12.9 µM (inactive)
COc1ccc(/N=N\c2c(N)nn3c(SC)c(C#N)c(N)nc23)cc1 | 11.1 µM (inactive) | 18 µM (inactive) | 14.6 µM (inactive) | 14.9 µM (inactive) | 5.52 µM (inactive) | 3.96 µM (inactive) | 2.71 µM (inactive) | 9.75 µM (inactive) | 1.74 µM (inactive) | 2.61 µM (inactive) | 16.2 µM (inactive) | 15.8 µM (inactive) | 17.6 µM (inactive) | 6.47 µM (inactive) | 19 µM (inactive) | 5.27 µM (inactive) | 17.8 µM (inactive) | 2.44 µM (inactive) | 1.85 µM (inactive) | 5.11 µM (inactive)
C/C=C1/CN2CCC34c5ccccc5N5C(=O)C(C6CC78c9ccccc9N9C(=O)C=CC(C%10CC7N6C/C%10=C/C)C98)=CC(C1CC23)C54 (stereo unspecified) | 8.81 µM (inactive) | 8.15 µM (inactive) | 7 µM (inactive) | 8.77 µM (inactive) | 7.71 µM (inactive) | 5.9 µM (inactive) | 0.183 µM (active) | 2.44 µM (inactive) | 10.3 µM (inactive) | 1.11 µM (active) | 7.82 µM (inactive) | 6.65 µM (inactive) | 10.2 µM (inactive) | 1.73 µM (inactive) | 1.11 µM (active) | 5.53 µM (inactive) | 6.62 µM (inactive) | 0.667 µM (active) | 11.1 µM (inactive) | 5.62 µM (inactive)
C[C@@H]1CC[C@@]2(OC1)O[C@H]1C[C@H]3[C@@H]4CC[C@H]5C[C@@H](OC6OC(CO)C(OC7OC(CO)C(O)C(OC8OCC(O)C(O)C8O)C7OC7OC(CO)C(O)C(O)C7O)C(O)C6O)[C@H](O)C[C@]5(C)[C@H]4CC[C@]3(C)[C@H]1[C@@H]2C (stereo partly specified) | 7.89 µM (inactive) | 0.855 µM (active) | 2.75 µM (inactive) | 2.94 µM (inactive) | 2.42 µM (inactive) | 12.3 µM (inactive) | 1.49 µM (inactive) | 1.75 µM (inactive) | 1.39 µM (inactive) | 11.3 µM (inactive) | 15.2 µM (inactive) | 1.85 µM (inactive) | 4.76 µM (inactive) | 9.98 µM (inactive) | 2.69 µM (inactive) |  | 13.6 µM (inactive) | 14.3 µM (inactive) | 5.38 µM (inactive) | 18.1 µM (inactive)
O=C(CSc1nc2ccc(I)cc2c(=O)n1Cc1ccccc1)NNC(=S)Nc1ccccc1 | 3.55 µM (inactive) | 24.6 µM (inactive) | 18.9 µM (inactive) | 80.5 µM (inactive) | > 100 µM (inactive) | 43.3 µM (inactive) | 25.5 µM (inactive) | 41.5 µM (inactive) | > 100 µM (inactive) | 6.08 µM (inactive) |  | 5.47 µM (inactive) | > 100 µM (inactive) | > 100 µM (inactive) |  | 3.9 µM (inactive) | > 100 µM (inactive) | 3.1 µM (inactive) | 23.5 µM (inactive) | 14.7 µM (inactive)
NC(=O)/C=C/NC(=O)/C=N\O | > 100 µM (inactive) |  | > 100 µM (inactive) | > 100 µM (inactive) | > 100 µM (inactive) | > 100 µM (inactive) | > 100 µM (inactive) | > 100 µM (inactive) | > 100 µM (inactive) | > 100 µM (inactive) | > 100 µM (inactive) | > 100 µM (inactive) | > 100 µM (inactive) | > 100 µM (inactive) | > 100 µM (inactive) | > 100 µM (inactive) | > 100 µM (inactive) | > 100 µM (inactive) | > 100 µM (inactive) | > 100 µM (inactive)
C[C@H]1[C@H](C)CC[C@]2(C(=O)OC3OC(CO)C(O)C(O)C3O)CC[C@]3(C)C(=CC[C@@H]4[C@@]5(C)C[C@@H](O)[C@@H]6OC(=O)c7cc(O)c(O)c(O)c7-c7c(cc(O)c(O)c7O)C(=O)OC[C@]6(CO)[C@@H]5CC[C@]43C)[C@H]12 (stereo partly specified) | > 100 µM (inactive) | 78 µM (inactive) | > 73.3 µM (inactive) | > 100 µM (inactive) | > 100 µM (inactive) | 17.3 µM (inactive) | 25.9 µM (inactive) | 19.1 µM (inactive) | 12.6 µM (inactive) | 17.7 µM (inactive) | > 100 µM (inactive) | 23.7 µM (inactive) | > 67.9 µM (inactive) | > 91.4 µM (inactive) | > 100 µM (inactive) | 30.5 µM (inactive) | > 88.5 µM (inactive) | 17.3 µM (inactive) | 42.7 µM (inactive) | > 78.3 µM (inactive)
C/C(Cl)=N\OC(=O)Nc1ccc([N+](=O)[O-])cc1 | 15.3 µM (inactive) | 21.6 µM (inactive) | 4.73 µM (inactive) | 23 µM (inactive) | 17.6 µM (inactive) | 15.6 µM (inactive) | 1.82 µM (inactive) | 9.71 µM (inactive) | 5.36 µM (inactive) | 1.92 µM (inactive) | 3.01 µM (inactive) | 18.7 µM (inactive) | 16.4 µM (inactive) | 16.8 µM (inactive) | 16.3 µM (inactive) | 12.4 µM (inactive) | 16.7 µM (inactive) | 6.79 µM (inactive) | 9.48 µM (inactive) | 16.8 µM (inactive)
CCCCCCCCCCCC[C@H](O)[C@H]1CC[C@H]([C@H](O)CCCC[C@H](O)CCCCC[C@@H](O)CC2=C[C@H](C)OC2=O)O1 | 4.58 µM (inactive) | 2.34 µM (inactive) | 1.08 µM (active) | 0.0026 µM (active) | 9.42 µM (inactive) | 17.4 µM (inactive) | 2.15 µM (inactive) | 2.82 µM (inactive) | 1.11 µM (active) | 2.87 µM (inactive) | 17.9 µM (inactive) | 3.04 µM (inactive) | 17.7 µM (inactive) | 16.6 µM (inactive) | 15.3 µM (inactive) | 5.83 µM (inactive) | 4.99 µM (inactive) | 2.82 µM (inactive) | 4.14 µM (inactive) | 0.407 µM (active)
